# Reference: ChEMBL document CHEMBL2040771, “Discovery of a potent inhibitor of anaplastic lymphoma kinase with in vivo antitumor activity” (ACS Med Chem Lett, 2010)
# Calls of active or inactive are those of the source. No cut-off for these calls is given here.
# Assays:
# [1] = Volume of distribution in SCID mouse at 1 mg/kg, iv; format: ADME, organism-based; parameters: dose 1 mg/kg, route intravenous; details: in vivo
# [2] = target: T1, ALK tyrosine kinase receptor (Homo sapiens, UniProt Q9UM73); assay: Inhibition of ALK
# Target sequence in this assay (Q9UM73 whole entry): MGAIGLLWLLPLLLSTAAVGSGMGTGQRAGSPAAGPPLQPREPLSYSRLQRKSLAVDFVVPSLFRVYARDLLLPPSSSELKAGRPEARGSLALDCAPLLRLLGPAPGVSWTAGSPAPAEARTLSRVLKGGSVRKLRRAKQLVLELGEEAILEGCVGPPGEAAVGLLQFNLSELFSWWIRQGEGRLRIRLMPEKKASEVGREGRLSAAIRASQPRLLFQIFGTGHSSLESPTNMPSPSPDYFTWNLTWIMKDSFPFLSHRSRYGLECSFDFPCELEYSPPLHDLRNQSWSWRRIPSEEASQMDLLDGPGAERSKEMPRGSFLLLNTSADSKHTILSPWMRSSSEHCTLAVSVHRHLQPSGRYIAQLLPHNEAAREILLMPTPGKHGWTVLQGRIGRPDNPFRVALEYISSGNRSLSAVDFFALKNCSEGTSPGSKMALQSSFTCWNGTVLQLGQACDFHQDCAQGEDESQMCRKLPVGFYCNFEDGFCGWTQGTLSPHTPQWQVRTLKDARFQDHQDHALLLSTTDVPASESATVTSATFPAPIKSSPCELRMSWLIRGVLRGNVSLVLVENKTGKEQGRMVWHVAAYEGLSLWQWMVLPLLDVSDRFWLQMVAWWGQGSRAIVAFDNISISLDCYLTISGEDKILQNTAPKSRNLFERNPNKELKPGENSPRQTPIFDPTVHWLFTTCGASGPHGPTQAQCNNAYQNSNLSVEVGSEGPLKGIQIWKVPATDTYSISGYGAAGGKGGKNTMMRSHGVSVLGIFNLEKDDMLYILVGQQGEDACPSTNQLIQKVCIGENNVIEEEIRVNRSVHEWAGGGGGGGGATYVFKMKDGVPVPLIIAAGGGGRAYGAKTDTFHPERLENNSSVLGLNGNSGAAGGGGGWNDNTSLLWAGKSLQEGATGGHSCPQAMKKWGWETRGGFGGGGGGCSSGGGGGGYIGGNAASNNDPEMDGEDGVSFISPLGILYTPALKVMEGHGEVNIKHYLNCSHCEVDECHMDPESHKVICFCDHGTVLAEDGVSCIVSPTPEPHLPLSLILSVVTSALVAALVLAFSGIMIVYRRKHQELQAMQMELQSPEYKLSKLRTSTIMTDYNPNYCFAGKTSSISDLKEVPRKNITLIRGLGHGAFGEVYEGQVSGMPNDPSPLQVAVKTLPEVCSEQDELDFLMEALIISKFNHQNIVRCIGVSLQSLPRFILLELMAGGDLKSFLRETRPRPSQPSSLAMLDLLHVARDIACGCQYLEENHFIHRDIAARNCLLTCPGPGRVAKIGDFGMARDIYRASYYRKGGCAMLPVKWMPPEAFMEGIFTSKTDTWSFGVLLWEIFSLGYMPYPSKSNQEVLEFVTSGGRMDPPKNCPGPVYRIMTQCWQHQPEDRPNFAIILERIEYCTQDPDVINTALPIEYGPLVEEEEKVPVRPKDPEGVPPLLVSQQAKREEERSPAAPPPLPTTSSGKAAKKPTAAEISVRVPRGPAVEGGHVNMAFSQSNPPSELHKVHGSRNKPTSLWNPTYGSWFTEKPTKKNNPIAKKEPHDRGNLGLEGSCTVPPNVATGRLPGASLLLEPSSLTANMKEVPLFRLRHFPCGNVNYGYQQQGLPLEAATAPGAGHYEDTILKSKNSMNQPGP
# Insulin receptor = Insulin receptor (Homo sapiens, UniProt P06213); assay: Inhibition of insulin receptor
# SUP-M2 [3] = assay: Induction apoptosis in ALK-positive human SUP-M2 cells assessed as activation of caspase 3/7 by fluorometric assay; format: functional, cell-based
# Rattus norvegicus = assay: Clearance with respect to hepatic blood flow in Sprague-Dawley rat at 1 mg/kg, iv; format: ADME, organism-based, Liver; parameters: dose 1 mg/kg, route intravenous; details: in vivo
# [4] = AUC in Sprague-Dawley rat at 1 mg/kg, iv; format: ADME, organism-based; parameters: dose 1 mg/kg, route intravenous; details: plasma
# [5] = Tmax in Sprague-Dawley rat at 5 mg/kg, po; format: ADME, organism-based; parameters: dose 5 mg/kg, route oral; details: in vivo
# [6] = target: Serine/threonine-protein kinase PLK4 (Homo sapiens) (UniProt O00444); assay: Inhibition of PLK4 at 0.1 uM
# [7] = target: Ribosomal protein S6 kinase alpha-2 (Homo sapiens) (UniProt Q15349); assay: Inhibition of RPS6KA2 at 1 uM
# [8] = target: Tyrosine-protein kinase Srms (Homo sapiens) (UniProt Q9H3Y6); assay: Inhibition of SRMS at 1 uM
# Chain of Tyrosine-protein kinase Srms (Homo sapiens) (Q9H3Y6 whole entry): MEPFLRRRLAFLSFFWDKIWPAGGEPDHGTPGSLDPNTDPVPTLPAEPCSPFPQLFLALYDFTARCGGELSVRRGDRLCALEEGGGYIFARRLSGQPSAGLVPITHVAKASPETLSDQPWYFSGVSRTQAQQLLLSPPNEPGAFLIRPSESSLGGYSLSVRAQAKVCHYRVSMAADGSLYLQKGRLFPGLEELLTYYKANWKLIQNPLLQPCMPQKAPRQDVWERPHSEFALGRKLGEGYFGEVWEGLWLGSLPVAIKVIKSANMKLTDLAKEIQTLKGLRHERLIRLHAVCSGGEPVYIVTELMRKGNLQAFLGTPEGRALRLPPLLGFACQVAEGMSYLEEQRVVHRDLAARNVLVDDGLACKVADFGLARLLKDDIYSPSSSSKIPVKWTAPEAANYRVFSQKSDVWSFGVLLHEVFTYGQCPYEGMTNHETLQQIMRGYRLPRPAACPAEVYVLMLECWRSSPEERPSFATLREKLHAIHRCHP
# [9] = target: Dual specificity protein kinase TTK (Homo sapiens) (UniProt P33981); assay: Inhibition of TTK at 1 uM
# [10] = target: Serine/threonine-protein kinase ULK3 (Homo sapiens) (UniProt Q6PHR2); assay: Inhibition of ULK3 at 0.1 uM
# Chain of Serine/threonine-protein kinase ULK3 (Homo sapiens) (Q6PHR2 whole entry): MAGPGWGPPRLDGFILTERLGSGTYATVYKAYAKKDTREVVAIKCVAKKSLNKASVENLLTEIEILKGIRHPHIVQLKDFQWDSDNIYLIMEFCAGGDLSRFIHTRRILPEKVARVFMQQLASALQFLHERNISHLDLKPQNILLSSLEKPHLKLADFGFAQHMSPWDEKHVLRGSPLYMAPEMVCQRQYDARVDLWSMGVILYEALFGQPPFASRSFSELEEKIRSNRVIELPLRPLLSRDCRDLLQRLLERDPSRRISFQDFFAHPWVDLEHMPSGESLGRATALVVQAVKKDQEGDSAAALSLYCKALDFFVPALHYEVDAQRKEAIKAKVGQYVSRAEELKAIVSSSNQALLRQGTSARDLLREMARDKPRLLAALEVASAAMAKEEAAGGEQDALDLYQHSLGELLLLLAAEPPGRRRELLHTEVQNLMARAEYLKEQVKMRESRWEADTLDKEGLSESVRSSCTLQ
# Mus musculus [11] = assay: Toxicity in SCID mouse xenografted with human SUP-M2 cells at 10 mg/kg, po BID for 12 days; format: organism-based; parameters: dose 10 mg/kg, route oral; details: in vivo, 288 h
# [12] = Half life in Sprague-Dawley rat at 5 mg/kg, po; format: ADME, organism-based; parameters: dose 5 mg/kg, route oral; details: in vivo
# [13] = Plasma clearance in beagle dog at 1 mg/kg, iv by LC/MS/MS analysis; format: ADME, organism-based, Canis lupus familiaris; parameters: dose 1 mg/kg, route intravenous
# [14] = Tmax in beagle dog at 10 mg/kg, po; format: ADME, organism-based, Canis lupus familiaris; parameters: dose 10 mg/kg, route oral; details: in vivo
# Mus musculus [15] = assay: Antitumor activity in ALK-positive human SUP-M2 cells xenografted in SCID mouse assessed as inhibition of NPM-ALK autophosphorylation in tumor lysate at 30 mg/kg, po administered as single dose measured after 12 hrs; format: functional; details: SUP-M2, Neoplasm, read-out: TGI
# [16] = Plasma protein binding in mouse; format: ADME, cell-free; details: read-out: PPB (converted)
# SUP-M2 [17] = assay: Antitumor activity against ALK-positive human SUP-M2 cells xenografted in SCID mouse assessed as complete tumor regression at 55 mg/kg, po bid after 12 days; format: functional, organism-based; parameters: dose 55 mg/kg
# [18] = test system: Receptor-type tyrosine-protein kinase FLT3 (Homo sapiens), P36888 [D835Y]; assay: Inhibition of FLT3 D835Y mutant at 1 uM
# [19] = test system: Receptor-type tyrosine-protein kinase FLT3 (Homo sapiens), P36888 [D835H]; assay: Inhibition of FLT3 D835H mutant at 0.1 uM
# [20] = target: Fibroblast growth factor receptor 4 (Homo sapiens) (UniProt P22455); assay: Inhibition of FGFR4 at 1 uM
# [21] = test system: Epidermal growth factor receptor (Homo sapiens), P00533 [L861Q]; assay: Inhibition of EGFR L861Q mutant at 1 uM; format: protein assay
# Chain of Epidermal growth factor receptor (Homo sapiens), P00533 [L861Q] (P00533 whole entry L861Q): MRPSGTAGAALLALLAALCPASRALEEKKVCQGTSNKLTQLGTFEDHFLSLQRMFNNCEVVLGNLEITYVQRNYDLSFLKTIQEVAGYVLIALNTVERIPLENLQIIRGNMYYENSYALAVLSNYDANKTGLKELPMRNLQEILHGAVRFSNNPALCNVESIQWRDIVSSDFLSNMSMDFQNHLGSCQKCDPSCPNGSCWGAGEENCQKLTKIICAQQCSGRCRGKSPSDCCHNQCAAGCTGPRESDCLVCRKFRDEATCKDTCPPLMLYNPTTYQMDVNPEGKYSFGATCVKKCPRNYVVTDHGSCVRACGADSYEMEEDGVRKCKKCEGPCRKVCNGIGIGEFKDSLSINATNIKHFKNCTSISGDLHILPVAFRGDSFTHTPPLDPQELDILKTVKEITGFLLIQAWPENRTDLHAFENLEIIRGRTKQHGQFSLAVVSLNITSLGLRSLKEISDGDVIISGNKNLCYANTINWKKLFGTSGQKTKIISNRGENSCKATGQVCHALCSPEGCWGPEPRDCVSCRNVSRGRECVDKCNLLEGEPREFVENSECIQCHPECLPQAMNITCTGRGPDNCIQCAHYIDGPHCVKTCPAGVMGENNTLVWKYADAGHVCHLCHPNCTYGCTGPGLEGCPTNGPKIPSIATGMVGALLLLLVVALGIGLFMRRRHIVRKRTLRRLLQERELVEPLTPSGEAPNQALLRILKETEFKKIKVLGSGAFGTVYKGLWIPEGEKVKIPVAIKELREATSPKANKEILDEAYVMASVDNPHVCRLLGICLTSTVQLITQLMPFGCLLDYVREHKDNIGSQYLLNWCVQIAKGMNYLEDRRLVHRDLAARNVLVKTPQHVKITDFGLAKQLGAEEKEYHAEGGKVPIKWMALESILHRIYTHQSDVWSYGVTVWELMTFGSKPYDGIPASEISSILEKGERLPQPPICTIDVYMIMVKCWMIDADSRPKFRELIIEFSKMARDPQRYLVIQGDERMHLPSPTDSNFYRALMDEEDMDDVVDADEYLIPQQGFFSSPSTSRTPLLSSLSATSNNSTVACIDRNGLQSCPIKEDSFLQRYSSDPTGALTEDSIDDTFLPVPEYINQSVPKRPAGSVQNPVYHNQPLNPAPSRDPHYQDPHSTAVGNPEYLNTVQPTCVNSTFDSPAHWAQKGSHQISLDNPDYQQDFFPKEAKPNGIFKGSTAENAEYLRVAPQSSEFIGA
# [22] = test system: Epidermal growth factor receptor (Homo sapiens), P00533 [L861Q]; assay: Inhibition of EGFR L861Q mutant at 0.1 uM; format: protein assay
# [23] = test system: Epidermal growth factor receptor (Homo sapiens), P00533 [L858R]; assay: Inhibition of EGFR L858R mutant at 0.1 uM; format: protein assay
# Chain of Epidermal growth factor receptor (Homo sapiens), P00533 [L858R] (P00533 whole entry L858R): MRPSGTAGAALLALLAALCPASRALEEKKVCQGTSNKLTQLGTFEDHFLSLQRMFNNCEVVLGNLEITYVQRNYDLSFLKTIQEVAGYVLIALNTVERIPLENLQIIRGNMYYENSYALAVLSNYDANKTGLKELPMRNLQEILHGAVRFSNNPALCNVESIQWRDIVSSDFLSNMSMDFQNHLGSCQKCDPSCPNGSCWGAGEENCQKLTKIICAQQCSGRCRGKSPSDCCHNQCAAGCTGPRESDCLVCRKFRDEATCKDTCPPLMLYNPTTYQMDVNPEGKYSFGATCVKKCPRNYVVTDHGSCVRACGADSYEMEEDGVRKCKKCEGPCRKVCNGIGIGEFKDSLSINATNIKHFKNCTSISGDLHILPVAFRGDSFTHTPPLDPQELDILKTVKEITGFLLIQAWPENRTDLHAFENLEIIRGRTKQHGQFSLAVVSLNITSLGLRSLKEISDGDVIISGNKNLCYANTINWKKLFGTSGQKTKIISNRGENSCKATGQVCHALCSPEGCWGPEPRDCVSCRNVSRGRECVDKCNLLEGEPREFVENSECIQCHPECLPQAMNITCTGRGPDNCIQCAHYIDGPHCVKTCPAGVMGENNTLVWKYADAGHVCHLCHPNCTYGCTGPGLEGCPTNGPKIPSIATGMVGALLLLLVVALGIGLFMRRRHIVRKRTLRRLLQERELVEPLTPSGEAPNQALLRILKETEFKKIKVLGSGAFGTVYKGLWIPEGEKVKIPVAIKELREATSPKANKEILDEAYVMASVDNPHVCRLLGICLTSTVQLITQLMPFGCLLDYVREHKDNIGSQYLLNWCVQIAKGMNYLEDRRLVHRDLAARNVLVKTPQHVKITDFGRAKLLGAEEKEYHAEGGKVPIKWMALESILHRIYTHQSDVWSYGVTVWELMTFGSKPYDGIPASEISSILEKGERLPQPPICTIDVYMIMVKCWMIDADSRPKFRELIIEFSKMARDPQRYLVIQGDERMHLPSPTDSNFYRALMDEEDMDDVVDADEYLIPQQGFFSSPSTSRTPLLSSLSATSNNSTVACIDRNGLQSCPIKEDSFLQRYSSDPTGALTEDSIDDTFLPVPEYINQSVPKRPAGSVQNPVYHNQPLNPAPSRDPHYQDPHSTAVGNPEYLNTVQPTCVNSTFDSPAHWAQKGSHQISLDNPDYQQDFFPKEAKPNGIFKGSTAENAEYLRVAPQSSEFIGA
# [24] = test system: Receptor-type tyrosine-protein kinase FLT3 (Homo sapiens), P36888 [N841I]; assay: Inhibition of FLT3 N841I mutant at 0.1 uM
# [25] = target: Dual specificity mitogen-activated protein kinase kinase 1 (Homo sapiens) (UniProt Q02750); assay: Inhibition of MEK1 at 0.1 uM
# [26] = target: Dual specificity mitogen-activated protein kinase kinase 4 (Homo sapiens) (UniProt P45985); assay: Inhibition of MEK4 at 1 uM
# [27] = target: T1, ALK tyrosine kinase receptor; details: 1 uM
# Description: Inhibition of ALK at 1 uM
smiles,measurement,setting,value
CCN1C(=O)CCCc2c1ccc(Nc1ncc(Cl)c(N[C@H]3[C@@H](C(N)=O)[C@@H]4C=C[C@H]3C4)n1)c2OC,Vd,[1],0.9 L/kg
same,IC50,[2],14 nM
same,IC50,Insulin receptor,597 nM
same,Activity,SUP-M2 [3],Active
same,CL,Rattus norvegicus,20%
same,AUC,[4],1280 ng·h/mL
same,Tmax,[5],0.8 h
same,inhibition,[6],95%
same,inhibition,[7],100%
same,inhibition,[8],94%
same,inhibition,[9],96%
same,inhibition,[10],< 50%
same,Activity,Mus musculus [11],Non-toxic
same,half-life,[12],2.2 h
same,clearance,[13],22 mL/min/kg
same,Tmax,[14],1.1 h
same,inhibition in vivo at 30 mg/kg,Mus musculus [15],> 80%
same,fraction unbound,[16],0.08
same,Activity,SUP-M2 [17],Active
same,inhibition,[18],96%
same,inhibition,[19],85%
same,inhibition,[20],98%
same,inhibition,[21],93%
same,inhibition,[22],< 50%
same,inhibition,[23],< 50%
same,inhibition,[24],< 50%
same,inhibition,[25],< 50%
same,inhibition,[26],90%
same,inhibition,[27],97%
